Our source for the EC30 values is patent US10758534B2 (Vertex Pharmaceuticals Incorporated, priority 2014, dated 2020).

The assay has as its target T1, F508del (Homo sapiens, UniProt P13569, DEL508-508).
T1 construct: expressed in transfected cells
Kind of assay: Protocol 1: membrane potential optical assay (FLIPR III, voltage sensing dye), identification of potentiator compounds. The class given is cell-based. The note with it: Table 3, compounds of Table 1. The method, boiled down:
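Mouse NIH 3T3 fibroblasts stably expressing F508del, temperature-corrected at 27 °C for 24 h, pretreated with compound, then loaded with voltage-sensing redistribution dye. Forskolin was added in a single step with a chloride gradient (chloride-free gluconate bath; Bath Solution #1 HEPES pH 7.4). Membrane-potential fluorescence read on FLIPR III.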

Each structure is given as a SMILES string.

T1 sequence (P13569 with tags, fused parts or gaps DEL508-508): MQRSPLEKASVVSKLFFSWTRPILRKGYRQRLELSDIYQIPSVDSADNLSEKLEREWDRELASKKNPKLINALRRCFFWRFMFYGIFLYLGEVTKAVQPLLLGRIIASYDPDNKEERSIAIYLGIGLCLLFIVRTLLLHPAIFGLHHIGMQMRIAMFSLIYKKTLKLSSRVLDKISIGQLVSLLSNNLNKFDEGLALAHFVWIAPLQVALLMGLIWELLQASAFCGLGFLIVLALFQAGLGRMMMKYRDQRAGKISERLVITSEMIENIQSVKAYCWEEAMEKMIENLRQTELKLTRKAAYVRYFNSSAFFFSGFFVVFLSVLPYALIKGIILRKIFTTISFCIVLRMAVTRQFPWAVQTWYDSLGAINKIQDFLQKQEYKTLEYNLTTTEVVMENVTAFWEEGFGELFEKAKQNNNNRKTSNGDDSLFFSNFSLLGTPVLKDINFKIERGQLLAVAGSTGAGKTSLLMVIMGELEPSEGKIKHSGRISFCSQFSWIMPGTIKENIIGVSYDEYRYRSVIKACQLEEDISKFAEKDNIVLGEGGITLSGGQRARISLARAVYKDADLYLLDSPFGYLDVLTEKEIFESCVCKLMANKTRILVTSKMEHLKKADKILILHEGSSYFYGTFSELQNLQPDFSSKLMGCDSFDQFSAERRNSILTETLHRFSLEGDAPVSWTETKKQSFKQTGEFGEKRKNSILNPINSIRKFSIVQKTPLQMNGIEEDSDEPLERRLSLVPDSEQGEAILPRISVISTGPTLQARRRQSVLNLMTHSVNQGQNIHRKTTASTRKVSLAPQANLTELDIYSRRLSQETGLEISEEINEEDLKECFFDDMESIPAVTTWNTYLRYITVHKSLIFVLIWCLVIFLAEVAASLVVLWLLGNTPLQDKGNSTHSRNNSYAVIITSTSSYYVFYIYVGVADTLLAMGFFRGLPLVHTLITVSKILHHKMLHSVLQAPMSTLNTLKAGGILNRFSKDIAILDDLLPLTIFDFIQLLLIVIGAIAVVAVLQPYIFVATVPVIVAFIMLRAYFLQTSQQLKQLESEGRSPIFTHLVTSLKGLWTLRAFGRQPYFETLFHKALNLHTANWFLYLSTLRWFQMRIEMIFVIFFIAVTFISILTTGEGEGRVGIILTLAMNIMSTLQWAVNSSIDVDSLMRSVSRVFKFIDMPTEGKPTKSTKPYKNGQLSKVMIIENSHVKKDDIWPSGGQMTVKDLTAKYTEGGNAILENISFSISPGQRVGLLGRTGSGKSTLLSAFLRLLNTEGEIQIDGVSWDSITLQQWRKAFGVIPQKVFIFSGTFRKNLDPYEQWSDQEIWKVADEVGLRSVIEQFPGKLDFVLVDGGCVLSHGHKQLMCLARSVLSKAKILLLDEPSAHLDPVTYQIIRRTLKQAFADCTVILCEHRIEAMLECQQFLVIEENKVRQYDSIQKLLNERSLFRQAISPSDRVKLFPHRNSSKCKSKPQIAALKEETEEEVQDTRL

`C[C@@H]1CN(c2nc(C(C)(C)C)c(/C=C/C(=O)O)cc2C(=O)NS(=O)(=O)c2cccc(N)n2)C(C)(C)C1` [Compound 1547, (E)-3-[5-[(6-amino-2-pyridyl)sulfonylcarbamoyl]-2-tert-butyl-6-[(4S)-2,2,4-trimethylpyrrolidin-1-yl]-3-pyridyl]prop-2-enoic acid]: the EC30 entry was “++ (“++” means between 3 uM and 10 uM)”.

As for `CCOc1cccc(Oc2cccc(S(=O)(=O)NC(=O)c3cccnc3N3CC(C)CC3(C)C)n2)c1` (stereo not shown) [Compound 1828, N—[[6-(3-ethoxyphenoxy)-2-pyridyl]sulfonyl]-2-(2,2,4-trimethylpyrrolidin-1-yl)pyridine-3-carboxamide], the EC30 result is “+++ (“+++” means <3 uM)”.

As for `CC1CN(c2nc(-c3ccc(C(C)C)nc3)ccc2C(=O)NS(=O)(=O)c2cccc(N)n2)C(C)(C)C1` (stereo not shown) [Compound 896, N-[(6-amino-2-pyridyl)sulfonyl]-6-(6-isopropyl-3-pyridyl)-2-(2,2,4-trimethylpyrrolidin-1-yl)pyridine-3-carboxamide], the EC30 entry is on record as “+++ (“+++” means <3 uM)”.

With `COc1ccc(-c2ccc(C(=O)NS(=O)(=O)c3cccnc3N)c(N3C[C@@H](C)CC3(C)C)n2)c(F)c1` [Compound 1818, N-[(2-amino-3-pyridyl)sulfonyl]-6-(2-fluoro-4-methoxy-phenyl)-2-[(4S)-2,2,4-trimethylpyrrolidin-1-yl]pyridine-3-carboxamide], the EC30 entry was “+++ (“+++” means <3 uM)”.

Regarding `Cc1cc(C(=O)NS(=O)(=O)c2cccc(N)n2)c(N2CC(C)CC2(C)C)nc1-c1ccc(OC(C)C)nc1` (stereo not shown) [Compound 995, N-[(6-amino-2-pyridyl)sulfonyl]-6-(6-isopropoxy-3-pyridyl)-5-methyl-2-(2,2,4-trimethylpyrrolidin-1-yl)pyridine-3-carboxamide], the EC30 entry is given as “+++ (“+++” means <3 uM)”.

`CC(C)COc1cnn(-c2ccc(C(=O)NS(=O)(=O)c3ccccc3)c(N3C[C@@H](C)CC3(C)C)n2)c1` [Compound 1912, N-(benzenesulfonyl)-6-(4-isobutoxypyrazol-1-yl)-2-[(4S)-2,2,4-trimethylpyrrolidin-1-yl]pyridine-3-carboxamide]: the EC30 result is given as “+++ (“+++” means <3 uM)”.

On to `Cc1cc(C)c(Oc2nc(N3[C@H](C)CC[C@@H]3C)c(C)cc2C(=O)NS(=O)(=O)c2cccc(N)n2)c(C)c1` [Compound 1589, N-[(6-amino-2-pyridyl)sulfonyl]-6-[(2R,5S)-2,5-dimethylpyrrolidin-1-yl]-5-methyl-2-(2,4,6-trimethylphenoxy)pyridine-3-carboxamide], for which the EC30 result is given as “+++ (“+++” means <3 uM)”.

`CCOc1cccc2c1CN(Cc1cc(F)cc(OC)c1)C2(C)C(=O)NS(=O)(=O)c1cccc(N)n1` (stereo not shown) [Compound 1421, N-[(6-amino-2-pyridyl)sulfonyl]-4-ethoxy-2-[(3-fluoro-5-methoxy-phenyl)methyl]-1-methyl-isoindoline-1-carboxamide]: the EC30 entry is “+++ (“+++” means <3 uM)”.

For the molecule `Cc1cc(C)c(Oc2nc(-c3cc(F)cc(OCC(C)C)c3)ccc2C(=O)NS(=O)(=O)c2cccc(CN)n2)c(C)c1` [Compound 871, N-[[6-(aminomethyl)-2-pyridyl]sulfonyl]-6-(3-fluoro-5-isobutoxy-phenyl)-2-(2,4,6-trimethylphenoxy)pyridine-3-carboxamide], the EC30 result is reported as “+++ (“+++” means <3 uM)”.

`CC(C)COc1cnn(-c2ccc(C(=O)NS(=O)(=O)c3ccc[nH]c3=O)c(N3C[C@@H](C)CC3(C)C)n2)c1` [Compound 1760, 6-(4-isobutoxypyrazol-1-yl)-N-[(2-oxo-1H-pyridin-3-yl)sulfonyl]-2-[(4S)-2,2,4-trimethylpyrrolidin-1-yl]pyridine-3-carboxamide]: the EC30 result is “++ (“++” means between 3 uM and 10 uM)”.

As for `Cc1cc(C)c(Cn2nc(C(C)(C)C)cc2C(=O)NS(=O)(=O)c2ccncc2)c(C)c1` [Compound 1585, 5-tert-butyl-N-(4-pyridylsulfonyl)-2-[7(2,4,6-trimethylphenyl)methyl]pyrazole-3-carboxamide], the EC30 entry was “+++ (“+++” means <3 uM)”.

As to `CC(C)COc1cc(F)cc(-c2ccc(C(=O)NS(=O)(=O)c3cccc(N)n3)c(OCC3CCCCC3)n2)c1` [Compound 1395, N-[(6-amino-2-pyridyl)sulfonyl]-2-(cyclohexylmethoxy)-6-(3-fluoro-5-isobutoxy-phenyl)pyridine-3-carboxamide], the EC30 entry is “+++ (“+++” means <3 uM)”.

Regarding `Cc1cc(C)c(Oc2nc(C3CCOC(C)(C)C3)ccc2C(=O)NS(=O)(=O)c2cccc(N)n2)c(C)c1` (stereo not shown) [Compound 1466, N-[(6-amino-2-pyridyl)sulfonyl]-6-(2,2-dimethyltetrahydropyran-4-yl)-2-(2,4,6-trimethylphenoxy)pyridine-3-carboxamide], the EC30 entry is “++ (“++” means between 3 uM and 10 uM)”.

As for `CCC(CC)Oc1ccc(-c2ccc(C(=O)NS(=O)(=O)c3cccc(N)n3)c(N3CC(C)CC3(C)C)n2)cn1` (stereo not shown) [Compound 1076, N-[(6-amino-2-pyridyl)sulfonyl]-6-[6-(1-ethylpropoxy)-3-pyridyl]-2-(2,2,4-trimethylpyrrolidin-1-yl)pyridine-3-carboxamide], the EC30 entry was “+++ (“+++” means <3 uM)”.

Take `CC(C)COc1cc(F)cc(-c2ccc(C(=O)NS(=O)(=O)c3ccn[nH]3)c(N3CCCC34CCC4)n2)c1` [Compound 1282, 2-(8-azaspiro[3.4]octan-8-yl)-6-(3-fluoro-5-isobutoxy-phenyl)-N-(1H-pyrazol-5-ylsulfonyl)pyridine-3-carboxamide]: the EC30 entry is “+++ (“+++” means <3 uM)”.

On to `Cc1cc(C)c(Oc2nc(-c3ccccc3Cl)ccc2C(=O)NS(=O)(=O)c2ccc[nH]c2=O)c(C)c1` [Compound 877, 6-(2-chlorophenyl)-N-[(2-oxo-1H-pyridin-3-yl)sulfonyl]-2-(2,4,6-trimethylphenoxy)pyridine-3-carboxamide], for which the EC30 result is “+++ (“+++” means <3 uM)”.

As to `CC(C)COc1cc(F)cc(-c2ccc(C(=O)NS(=O)(=O)c3cccc(N)n3)c(N(C)CC3CC3)n2)c1` [Compound 1010, N-[(6-amino-2-pyridyl)sulfonyl]-2-[cyclopropylmethyl(methyl)amino]-6-(3-fluoro-5-isobutoxy-phenyl)pyridine-3-carboxamide], the EC30 result is reported as “+++ (“+++” means <3 uM)”.

With `CC(C)[C@@H](C)Nc1ccc(-c2ccc(C(=O)NS(=O)(=O)c3cccc(N)n3)c(N3[C@H](C)CC[C@@H]3C)n2)cn1` [Compound 1442, N-[(6-amino-2-pyridyl)sulfonyl]-6-[6-[[(1R)-1,2-dimethylpropyl]amino]-3-pyridyl]-2-[(2S,5R)-2,5-dimethylpyrrolidin-1-yl]pyridine-3-carboxamide], the EC30 entry is listed as “+++ (“+++” means <3 uM)”.

For `CC(C)COc1cc(F)cc(-c2ccc(C(=O)NS(=O)(=O)c3cccc(N)n3)c(N3C[C@H](C)CC34CCC4)n2)c1` [Compound 1737], the EC30 result is “+++ (“+++” means <3 uM)”.

For the molecule `CCN(CC)c1cc(-c2ccc(C(=O)NS(=O)(=O)c3cccc(N)n3)c(N3C[C@@H](C)CC3(C)C)n2)cc(C)n1` [Compound 1739, N-[(6-amino-2-pyridyl)sulfonyl]-6-[2-(diethylamino)-6-methyl-4-pyridyl]-2-[(4S)-2,2,4-trimethylpyrrolidin-1-yl]pyridine-3-carboxamide], the EC30 entry is on record as “+++ (“+++” means <3 uM)”.

As for `CC1CCN(c2nc3c(cc2C(=O)NS(=O)(=O)c2ccc[nH]c2=O)CCCC3(C)C)CC1` [Compound 1195, 8,8-dimethyl-2-(4-methyl-1-piperidyl)-N-[(2-oxo-1H-pyridin-3-yl)sulfonyl]-6,7-dihydro-5H-quinoline-3-carboxamide], the EC30 result is listed as “+ (“+” means greater than 10 uM)”.

Regarding `COc1cc(OC)cc(-c2ccc(C(=O)NS(=O)(=O)c3cccc(N)n3)c(Oc3c(C)cc(C)cc3C)n2)c1` [Compound 828, N-[(6-amino-2-pyridyl)sulfonyl]-6-(3,5-dimethoxyphenyl)-2-(2,4,6-trimethylphenoxy)pyridine-3-carboxamide], the EC30 result was “+++ (“+++” means <3 uM)”.

As for `CCOc1cc(C)n(-c2ccc(C(=O)NS(=O)(=O)c3cccc(N)n3)c(N3C[C@@H](C)CC3(C)C)n2)n1` [Compound 1473, N-[(6-amino-2-pyridyl)sulfonyl]-6-(3-ethoxy-5-methyl-pyrazol-1-yl)-2-[(4S)-2,2,4-trimethylpyrrolidin-1-yl]pyridine-3-carboxamide], the EC30 entry is given as “+++ (“+++” means <3 uM)”.

Take `COc1cccc2c1CN(Cc1c(C)cc(C)cc1C)C2(C)C(=O)NS(=O)(=O)c1cccc(N)n1` (stereo not shown) [Compound 1161, N-[(6-amino-2-pyridyl)sulfonyl]-4-methoxy-1-methyl-2-[(2,4,6-trimethylphenyl)methyl]isoindoline-1-carboxamide]: the EC30 result is given as “+++ (“+++” means <3 uM)”.

Consider `CCOc1ccc(-c2ccc(C(=O)NS(=O)(=O)c3nccnc3N)c(Oc3c(C)cc(C)cc3C)n2)cc1` [Compound 1019, N-(3-aminopyrazin-2-yl)sulfonyl-6-(4-ethoxyphenyl)-2-(2,4,6-trimethylphenoxy)pyridine-3-carboxamide], for which the EC30 entry was “+++ (“+++” means <3 uM)”.

Consider `CC(C)Oc1ccc(-c2ccc(C(=O)NS(=O)(=O)c3cccc(N)n3)c(N3C[C@H](C)CC3(C)C)n2)cn1` [Compound 949, N-[(6-amino-2-pyridyl)sulfonyl]-6-(6-isopropoxy-3-pyridyl)-2-[(4R)-2,2,4-trimethylpyrrolidin-1-yl]pyridine-3-carboxamide], for which the EC30 result is recorded as “+++ (“+++” means <3 uM)”.

As for `Cc1cc(C)c(Oc2nc(C3=CC4CCC3(C)C4(C)C)ccc2C(=O)NS(=O)(=O)c2cccc(N)n2)c(C)c1` (stereo not shown) [Compound 1410, N-[(6-amino-2-pyridyl)sulfonyl]-6-(4,7,7-trimethyl-3-bicyclo[2.2.1]hept-2-enyl)-2-(2,4,6-trimethylphenoxy)pyridine-3-carboxamide], the EC30 entry is given as “+++ (“+++” means <3 uM)”.

On to `Cc1cc(C)c(Oc2nc(-c3ccccc3C)ccc2C(=O)NS(=O)(=O)c2cccc(N)n2)c(C)c1` [Compound 1120, N-[(6-amino-2-pyridyl)sulfonyl]-6-(o-tolyl)-2-(2,4,6-trimethylphenoxy)pyridine-3-carboxamide], for which the EC30 result is reported as “+++ (“+++” means <3 uM)”.
